Experiments:
Assay type in all cases: cell-based, human
NHEKs = assay: Cytokine mRNA expression in NHEKs stimulated with cathelicidin peptide and dsRNA (quantitative real-time PCR); conditions: for inhibition of the expression of inflammatory cytokines induced by LL37 and U1 RNA: MDC 200 μM, Pitstop-2 25 μM, dynasore 80 μM for 30 minutes
THP1 cells = assay: Cytokine expression in PMA-treated THP1 cells stimulated with cathelicidin peptide and U1 RNA; conditions: PMA-treated THP1; MDC 200 μM, Pitstop-2 25 μM, dynasore 80 μM for 30 minutes, LL37 3 μM and U1 RNA 12.5 μg/mL overnight; n = 3
Method: Figure 1 Inflammatory activity of cathelicidin can be dissociated from antimicrobial function (a) Transcriptomic analysis by RNASeq of primary cultures of normal human epidermal keratinocytes (NHEKs) treated with LL37 (2.5 μM) with or without U1 RNA (2.5 μg/mL) for 24 hours. Shown are gene sets induced > 2 fold over vehicle, and after treatment with LL37, U1 RNA, or the combination of LL37 + U1 RNA. (b) Gene Ontology analysis of gene sets from (a). The number of genes related to each biological process is indicated in parentheses. (c) Amino acid sequence of synthetic cathelicidin peptides used in this study. (d) Antimicrobial assay of cathelicidin peptides against group A streptococcus (GAS). GAS were incubated with various concentrations of each peptide (0–25 μM) for 6 hours, then surviving colonies counted after plating on Todd Hewitt Broth gel. (e) IFN-β1 mRNA abundance and (f) IL-6 mRNA abundance in NHEKs after treatment with cathelicidin peptides (2.5 μM) for 10 minutes, then stimulated with U1 RNA (2.5 μg/mL) for a further 6 hours. (n = 3). (g) IFN-β1 mRNA abundance and (h) IL-6 mRNA abundance in […] (PMA)-treated THP1 cells after treatment with cathelicidin peptides (3 μM) for 10 minutes, then stimulated with U1 RNA (12.5 μg/mL) overnight. (n = 3). Data presented are from one representative experiment of at least two independent experiments. Error bars are SEM of three biological replicates. *P < 0.05, **P < 0.01, ***P < 0.001 by two-way ANOVA with Bonferroni’s post-hoc test. See also Fig. S1.
Primary neonatal human epidermal keratinocytes (NHEKs) was purchased from ThermoFisher Scientific. NHEKs were grown in serum free EpiLife medium supplemented with 0.06 mM CaCl2, EpiLife Defined growth supplements (EDGS) (ThermoFisher Scientific) and antibiotics, and passage 3–5 cells were used for experiment. Cells at 60–80% confluence were starved overnight without EDGS prior to treatment. THP1 was purchased from American Type Culture Collection (ATCC) (Manassas, VA). THP1 was cultured in RPMI-1640 (Sigma) supplemented with 10% Hyclone fetal calf serum (Thermofisher Scientific), and antibiotics, and passage 3–5 cells were used for experiment. Cells at 60–80% confluence were differentiated by Phorbol 12-myristate 13-acetate (PMA, Sigma) for 24 hours and then starved overnight without Hyclone fetal calf serum prior to treatment.
RNA was isolated from NHEKs using Purelink RNA isolation columns (ThermoFisher Scientific) according to the manufacturer’s instructions. RNA was quantified using a Nanodrop spectrophotometer (ThermoFisher Scientific), and up to 500 ng of RNA was reverse-transcribed using the iScript cDNA synthesis kit (Bio-Rad, Irvine, CA). Quantitative real-time PCR reactions were run on a CFX96 real-time detection system (Bio-Rad) using gene-specific primers and TaqMan probes (ThermoFisher Scientific). PCR primers and probes are shown on Table S2.

scavenger receptors = assay: Proximity ligation assay between U1 RNA and the indicated scavenger receptors; conditions: NHEKs, 4 °C, 1 hour; Fig. 3d
Method: Figure 3 Cathelicidin enables dsRNA to associate with scavenger receptors. (a) Proximity ligation assay for SR-B1 and U1 RNA. NHEKs were cultured with various cathelicidin peptides (2.5 μM) for 10 minutes, then with biotinylated U1 RNA (2.5 μg/mL) at 4 °C for 1 hour before physical proximity of SR-B1 and U1 RNA was determined using a fluorescence-based PLA that produces a red fluorescent signal. Nuclei (blue) are counterstained with DAPI. Scale bar represents 10 μm. (b) Signal count of (a) in 5 visual fields. (c) Proximity ligation assay as in (a) but reaction is detecting proximity of LL37 and SR-A6. Scale bar represents 100 μm. (d) Signal count of proximity ligation assay performed as in (a), but between U1 RNA and the indicated scavenger receptors, each count is PLA complexes observed in 5 visual fields. (e) Skin sections from healthy subject (control), or lesional skin from a psoriasis patient (Psoriasis) were fixed and PLA performed for LL37 and SR-B1. […]
NHEKs seeded into 8 chamber slides (Thermo Fisher Scientific) were incubated with various combination of U1 RNA, poly(I:C), cathelicidin peptides, and fucoidan for 1 hour at 4 °C allowing binding, but not internalization. […] Fluorescent PLA signals were evaluated using fluorescence microscopy (described above). Signals are counted by Duolink ImageTool software version 1.0.1.2 (Sigma-aldrich).

[1] = LL37 2.5 μM and U1 RNA 2.5 μg/mL 6 hours, n = 3

Compound | inhibition of the expression of inflammatory cytokines induced by LL37 and U1 RNA (NHEKs; [1]) | inhibition of the expression of inflammatory cytokines induced by LL37 and U1 RNA (THP1 cells) | further results
Oc1ccc2ccccc2c1SSc1c(O)ccc2ccccc12 [IPA-3] | – | – | effect on IFN-β1 and IL-6 expression induced by LL37 and U1 RNA (NHEKs; IPA-3 2.8 nM for 30 minutes, LL37 2.5 μM and U1 RNA 2.5 μg/mL 6 hours, n = 3): did not inhibit
CN(C)c1cccc2c(S(=O)(=O)NCCCCCN)cccc12 [MDC, Monodansylcadaverine] | significant inhibition | significant inhibition | –
O=C1NC(=NS(=O)(=O)c2cccc3ccccc23)S/C1=C\c1ccc(Br)cc1 [Pitstop-2^TM] | significant inhibition | significant inhibition | –
O=C(N/N=C/c1ccc(O)c(O)c1)c1cc2ccccc2cc1O [dynasore] | significant inhibition | significant inhibition | –
Fucoidan | – | – | effect on LL37-dependent binding of U1 RNA to scavenger receptors (PLA) (scavenger receptors): significantly diminished binding; inhibition of the capacity of LL37 to induce cytokines combined with U1 RNA (NHEKs; various concentrations of fucoidan, LL37 2.5 μM and U1 RNA 2.5 μg/mL 6 hours): potently inhibited; inhibition of the capacity of LL37 to induce cytokines combined with poly(I:C) (NHEKs; various concentrations of fucoidan, LL37 2.5 μM and poly(I:C) 0.3 μg/mL 6 hours): potently inhibited
pertussis toxin | – | – | effect on expression of IL-6 induced by LL37 and U1 RNA (NHEKs; pertussis toxin 0.5 μg/mL or WRW4 1 μM for 1 hour, then LL37 2.5 μM and U1 RNA 2.5 μg/mL 6 hours, n = 3): did not decrease

From PMC5838106, “Cathelicidin promotes inflammation by enabling binding of self-RNA to cell surface scavenger receptors” (Scientific Reports, 2018)
